The text below walks through data of patent US7906477B2 (Genspera, Inc., priority 2002, dated 2011).

Square brackets hold non-standard residues; d marks the D form. Ends that are not written are not given here. Peptide text beside a SMILES is read from it. Tyr(3-NO2) = N[C@@H](Cc1ccc(O)c([N+](=O)[O-])c1)C(=O)O; Abz = aminobenzoic acid; 2Abz = Nc1ccccc1C(=O)O; Dap = NC[C@H](N)C(=O)O

One series addresses T1, hK2 (Homo sapiens, UniProt P20151).
T1 construct: made in house
Put plainly: hK2 mediated hydrolysis of peptide substrates in solution (fluorescence). It is filed as biochemical. As to conditions: for digestion by hK2 of arginine-free peptides (in words): in solution, even after prolonged incubation; for hK2 mediated hydrolysis (in words, FIG. 2): substrates 250 μM, 8 μg/ml hK2 in PBS buffer. How it is done:
FIG. 2 depicts a graph of hK2 mediated hydrolysis of peptide substrates identified through the screening of a random peptide library [Y′GKARAF-Dap-FK′ (SEQ ID NO:36), Y′GKAKPR-Dap-FK′ (SEQ ID NO:37), Y′GKAFRR-Dap-FK′ (SEQ ID NO:38), Y′GKAMRQ-Dap-FK′ (SEQ ID NO:39) and Y′GSKGHFKL-Dap-F-K′ (SEQ ID NO:40)]. Substrates (250 μM) were incubated with 8 μg/ml hK2 in PBS buffer. Hydrolysis of peptide results in increased fluorescence, as measured using a 96 well fluorometer. […] To determine 100% digestion, trypsin was added (50 mg/ml) and samples were incubated to 37° C. for 30 min and the fluorescence was determined. The percentage digested is determined by dividing fluorescence units of sample by fluorescence units of control fully digested peptide.
A mutant form of hK2 was utilized in which the amino acids −5 to −1 of the propeptide sequence of hK2 (i.e. Leu-Ile-Gln-Ser-Arg; SEQ ID NO:15) were mutated to Asp-Asp-Asp-Asp-Lys (SEQ ID NO:16) to generate a pro-hK2 protein that can be activated to functional hK2 by […] (Lovgren, J. et al. (1999) Eur. J. Biochem. 266:1050-1055). Compared with wild-type hK2, expression of the propeptide hK2 mutant increases the expression levels up to 15-40-fold (Lovgren, J. et al. (1999) Eur. J. Biochem. 266:1050-1055). The generation and characteristics of this mutant hK2 have been previously described (Lovgren, J. et al. (1999) Eur. J. Biochem. 266:1050-1055).
For validation of the Edman results, peptides were re-synthesized using a Rainin PS3 peptide synthesizer with HBTU/NMM activation. Peptides were synthesized on PEGA resin for on-bead analysis or on Fmoc-Lys(Mtt)-Wang resin for solution assays. The Fmoc-Lys(Mtt)-Wang resin was first deprotected with 2% TFA in DCM (3×2 min). The ε-amine of lysine was then acylated with Boc-Abz. Deprotection/cleavage was performed in TFA/TIS/water (95:2.5:2.5 v/v) for 2-3 hours. Peptides were ether precipitated, dried and purified by C18-HPLC using a linear gradient of acetonitrile (0.1% TFA), lyophilized and dissolved in DMSO. Peptide identities were confirmed by analysis on a Perseptive Voyager DE-STR MALDI-TOF using dihydroxy benzoic acid as a matrix. Fluorescence measurements were performed on a Fluoroskan II 96-well plate reader (ICN biomedicals, Costa Mesa, Calif.; excitation, 355 nm; emission, 460 nm). Kinetic parameters were calculated as described earlier (Denmeade, S. R. et al. (1997) Cancer Res. 57:4924-4930).
The combinatorial screen identified seven arginine-containing peptides. Four of these were re-synthesized (X1-X2-X3=RAF, KPR, FRR and MRQ respectively). Three other lead sequences were not re-synthesized (X1-X2-X3=IQR, FRK and VRQ respectively). All four arginine-containing sequences that were re-synthesized reproduced fluorescence when these peptides were digested on-bead with hK2. For a more quantitative analysis, the fluorescence-quenched peptides were cleaved off the resin and purified by HPLC. The rate of hydrolysis was quantified by measuring increase in fluorescence (Figure). […] In less than five minutes, more than 50% of the peptide was digested (500 μM peptide, 4 μg/ml hK2). For the other peptides, digestion of the same amount of peptide took 19-29 minutes. […] In subsequent studies, hydrolysis rates using the Y′GKAFRR-Dap-F-K′ (SEQ ID NO:38) peptide were analyzed by Lineweaver-Burke reciprocal plots.

Series [1] is described as follows: plasma stability in 50% human plasma. It is filed as in vitro ADME. Conditions: for remaining at 3 h, 500 μM: HPLC, read-out: parent peptide remaining after 3 hours; for degradation after overnight incubation (in words): human plasma. How it is done: FIG. 5 depicts the stability of Ac-GKAFRR-L12ADT (SEQ ID NO:41) in human plasma after a 24 hour incubation, as determined by HPLC analysis. Ac-GKAFRR-L12ADT (SEQ ID NO:41) was incubated in 50% human plasma for 24 hours at room temperature. Peak 1 represents an unidentified plasma contaminant that was also present in control plasma. Peaks 2 and 3 both represent Ac-GKAFRR-L12ADT (SEQ ID NO:41) as confirmed by MALDI-TOF mass spectrometric analysis.
(§1) Mouse plasma was obtained from cardiac puncture of anesthetized mice prior to euthanization by CO2 overdose according to protocols approved by the Johns Hopkins Animal Care and Use Committee. Human plasma was obtained from discarded, pooled, and unlabeled clinical samples. Plasma was diluted to 50% in Tris buffer (50 mM Tris-HCl, 100 mM NaCl, pH 7.8). To this, test peptides/prodrugs were added to 250 or 500 μM final concentration. After the incubation period, one volume (200 μl) of acetonitrile was added to precipitate the protein fraction and the tube was centrifuged at 14,000 for 2 min. The supernatant was analyzed by C18-HPLC and the collected peaks were analyzed by MALDI-TOF as described above.
(§2) Arginine-containing peptides are potential substrates for the wide variety of other trypsin-like proteases that are present in the blood and may have residual activity in the blood. The plasma stability of an hK2 peptide substrate may therefore be limited and this would have significant consequences related to the development of an hK2 activated prodrug. Therefore, two fluorescence quenched hK2 peptide substrates peptides were incubated in 50% mouse or human plasma (diluted in PBS buffer) to determine stability using a plate-reader. As observed with arginine containing peptides from the SPOT analysis above, none of the arginine-containing, fluorescence quenched hK2peptide substrates were stable in human or mouse plasma. Fluorescence-quenched Y′GKAFRR-Dap-GK′ (SEQ ID NO:42) and Y′GKAFRRLGK′ (SEQ ID NO:21) (500 μM each) were hydrolyzed when incubated in 50% mouse or human plasma (FIG. 7). Mouse plasma degraded the peptides faster than human plasma (FIG. 7). […] In human plasma, more peptide remained after 3 hours (˜25%). […] The proteolytic activity from plasma was never affected by repeated freeze-thaw cycles or by storage of the mouse plasma alone at room temperature for several days.
To determine the plasma stability for the hK2 prodrug, the prodrug was incubated in 50% fresh heparinized (1%) plasma for 24 hours at room temperature, precipitated the proteins by adding one volume of 1% TFA in acetonitrile and analyzed the supernatant by HPLC. Unexpectedly, BPLC analysis after 24 hrs incubation in plasma yielded only a single peak corresponding to the hK2 prodrug (FIG. 5). MALDI-TOF MS of the isolated single peak confirmed the stability of the molecule.

Series [2] in a line: plasma stability in 50% mouse plasma. It is filed as in vitro ADME. As to conditions: 500 μM; for parent peptide remaining after 3 hours (in words): HPLC. How it is done: as §1, §2

T1 sequence (P20151 25-261): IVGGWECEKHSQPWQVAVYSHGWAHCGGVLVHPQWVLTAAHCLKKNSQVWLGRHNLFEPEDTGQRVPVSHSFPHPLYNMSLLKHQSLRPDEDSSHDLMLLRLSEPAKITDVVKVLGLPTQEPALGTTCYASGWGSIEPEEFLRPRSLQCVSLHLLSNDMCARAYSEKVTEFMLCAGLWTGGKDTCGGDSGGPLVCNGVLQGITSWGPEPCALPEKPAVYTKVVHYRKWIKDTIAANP

Consider “Y′GSKGPFKL-Dap-K′: arginine-free fluorescence-quenched peptide derivative ([Tyr(3-NO2)]GSKGPFKL[Dap]K(Abz))”, for which, in the series with hK2, the “digestion by hK2 of arginine-free peptides (in words)” value is “none of these three arginine free peptides were digested by hK2”.
“Y′GSKGHFKL-Dap-K′: arginine-free fluorescence-quenched peptide, P1 lysine ([Tyr(3-NO2)]GSKGHFKL[Dap]K(Abz))”: the “digestion by hK2 of arginine-free peptides (in words)” value with hK2 is given as “none of these three arginine free peptides were digested by hK2”.
As for “Y′GSKGHFHL-Dap-K′: arginine-free fluorescence-quenched peptide from SPOT analysis sequence ([Tyr(3-NO2)]GSKGHFHL[Dap]K(Abz))”, the “digestion by hK2 of arginine-free peptides (in words)” value with hK2 is “none of these three arginine free peptides were digested by hK2”.
Regarding `C[C@H](NC(=O)[C@H](CCCCN)NC(=O)CNC(=O)[C@@H](N)Cc1ccc(O)c([N+](=O)[O-])c1)C(=O)N[C@@H](Cc1ccccc1)C(=O)N[C@@H](CCCNC(=N)N)C(=O)N[C@@H](CCCNC(=N)N)C(=O)N[C@@H](CN)C(=O)N[C@@H](Cc1ccccc1)C(=O)N[C@@H](CCCCNC(=O)c1ccccc1N)C(=O)O` [Y′GKAFRR-Dap-F-K′] (H-[Tyr(3-NO2)]GKAFRR[Dap]FK(2Abz)-OH; N-terminus assumed), at hK2 (500 μM peptide, 4 μg/ml hK2), the maximum digestion was 70-75%, the “time in which more than 50% of the peptide was digested” value was “less than five” and the “time to reach maximum digestion” value was “less than 15 minutes”. Also, the “hK2 mediated hydrolysis (in words, FIG. 2)” value at hK2 is on record as “by far exceeded all other substrates”.
On to `C[C@H](NC(=O)[C@H](CCCCN)NC(=O)CNC(=O)[C@@H](N)Cc1ccc(O)c([N+](=O)[O-])c1)C(=O)N[C@@H](Cc1ccccc1)C(=O)N[C@@H](CCCNC(=N)N)C(=O)N[C@@H](CCCNC(=N)N)C(=O)N[C@@H](CN)C(=O)NCC(=O)N[C@@H](CCCCNC(=O)c1ccccc1N)C(=O)O` [Y′GKAFRR-Dap-GK′] (H-[Tyr(3-NO2)]GKAFRR[Dap]GK(2Abz)-OH; N-terminus assumed), for which the share remaining at 3 h, 500 μM in series [1] (50% human plasma, 500 μM) is around 25%. Moreover, the “degradation after overnight incubation (in words)” value in series [1] is given as “complete degradation”. Further, the “parent peptide remaining after 3 hours (in words)” value in series [2] is given as “almost no parent peptide remained”.
On to `CC(C)C[C@H](NC(=O)[C@H](CCCNC(=N)N)NC(=O)[C@H](CCCNC(=N)N)NC(=O)[C@H](Cc1ccccc1)NC(=O)[C@H](C)NC(=O)[C@H](CCCCN)NC(=O)CNC(=O)[C@@H](N)Cc1ccc(O)c([N+](=O)[O-])c1)C(=O)NCC(=O)N[C@@H](CCCCNC(=O)c1ccccc1N)C(=O)O` [Y′GKAFRRLGK′] (H-[Tyr(3-NO2)]GKAFRRLGK(2Abz)-OH), for which, in series [1] (50% human plasma, 500 μM), the “relative stability of the peptides (in words)” value is on record as “less stable than the Dap containing peptide” and the fraction remaining at 3 h, 500 μM was around 25%. For the same compound, the “degradation after overnight incubation (in words)” value in series [1] is reported as “complete degradation”. Moreover, in series [2], the “relative stability of the peptides (in words)” value was “less stable than the Dap containing peptide” and the “parent peptide remaining after 3 hours (in words)” value is “almost no parent peptide remained”. Also, the “hK2 hydrolysis rate after substitution of Dap-F with Leu-Gly (in words)” value at hK2 (compare FIG. 2 with FIG. 8) was “only a modest decrease in hydrolysis rate”.
Turning to “Y′GSKGHFKL-Dap-F-K′: fluorescence-quenched substrate without arginine ([Tyr(3-NO2)]GSKGHFKL[Dap]FK(Abz))”, the “hK2 mediated hydrolysis (in words, FIG. 2)” value with hK2 was “did not show any hydrolysis”.

What is called share remaining is what is left of the initial amount, in per cent.
